Patent US20260151517A1, “SOMATOSTATIN RECEPTOR-TARGETING RADIOPHARMACEUTICALS AND USES THEREOF” (Nuclidium AG, priority 2024, published 2026)
Where a SMILES comes first, the peptide text is derived from it. Bridges are numbered along the chain shown (N, C = ends). [ ]: non-standard residue; d: D form. The star is where a group is joined. X2 = O=C(O)CN1CCN(CC(=O)O)CCN([C@H](CCC(=O)*)C(=O)O)CC1; dPhe(4-NHCONH2) = NC(=O)Nc1ccc(C[C@@H](N)C(=O)O)cc1; Phe(4-Cl) = N[C@@H](Cc1ccc(Cl)cc1)C(=O)O

Columns and labels:
[1] = Specificity (blocking) study with excess DOTA-LM3; conditions: athymic nude Foxn1^nu, mouse, total radioactivity
Description: (§4) Unless otherwise specified, the in vivo studies were performed on athymic nude Foxn1^nu 4-6 weeks-old mice. Animals were injected in the shoulder with HEK-SST2 cells (10^7 cells/200 μL) suspended in PBS. The in vivo experiments were performed when tumors reached a volume between 100-500 mm. At the intervention, all mice were between 7 and 11 weeks old.
(§5) The specificity study was performed parallel to pharmacokinetics studies. For this reason, NODAGA-LM3 was radiolabeled with ^64Cu.
(§6) The specificity of [^64Cu]Cu-NODAGA-LM3 for SSTR2-expressing tissues was evaluated in HEK-SST2 xenograft mice through a blocking study. The mice were administered with 0.15 MBq of [^64Cu]Cu-NODAGA-LM3 co-injected with a 2000-fold excess of DOTA-LM3 as a blocking agent. The mice were sacrificed 4 hours post-injection, and the organs were collected. weighed, and counted in a gamma counter.

[2] = tested on: HEK-SST2 xenograft mice; assay: Specificity (blocking) study with excess DOTA-LM3; conditions: inferred from low, stable liver accumulation
Description: as §4, §5, §6

[3] = Extended single-dose toxicity study (GLP, microdose approach); type: in vivo, mice; conditions: both sexes, C57BL/6NCrl, mouse, in vivo, iv, 5 mg/kg; single i.v. dose, 14 days observation, mice; read-out: no adverse effect level (NOAEL)
Description: (§1) The precursor-induced toxicity was evaluated using the non-radiolabeled precursor in line with the IAEA and EMA guidelines. The non-clinical safety study was performed using the microdose approach I described in the ICH guideline M3 (R2). The study was designed as an extended single-dose toxicity study in one rodent species and performed under GLP conditions. NODAGA-LM3 toxicity was evaluated after intravenous administration on day 1 of the study, followed by an observation period of 14 days. 60 (30 males and 30 females) C57BL/6NCrl mice were divided into one dose group and one control group. The test item was administered once by i.v, administration into the tail vein.
(§2) In each of the two groups, 20 male and 20 female main animals were euthanized the day after dosing, whereas 10 male and 10 female recovery animals were kept for an observation period of 14 days after dosing to detect possible delayed occurrence or persistence of, or recovery from toxic effects. Three extra mice per sex were included as replacement animals. The dose group animals were injected with a 5 mg/kg vector in a 5 mL/kg dose volume. The control group underwent injection of the vehicle alone (5 mL/kg). The animals were examined twice daily for toxicity and morbidity/mortality signs. All animals were sacrificed for necropsy. Blood was taken before necropsy for analysis of hematologic and clinical biochemistry parameters. Organs were collected, weighted, and preserved in neutral buffered formaldehyde (4%) for histopathological examination. […] No effects on body weight gain or food consumption were noted. […] Therefore, these differences were considered to be unrelated to the test substance. […] All these changes were transitory and considered non-adverse.

[4] = tested on: C57BL/6NCrl mice; assay: as above; type: in vivo
Description: as §1, §2

[5] = PET/CT imaging after [^61Cu]CuCl2 injection; type: in vivo
[6] = molecular target: T1, SSTR1 (Homo sapiens, UniProt P30872); assay: Binding affinity (IC50) to SSTR subtypes, displacement of [Leu,D-Trp,^125I-Tyr]-somatostatin-28; conditions: membrane pellet sections of SSTR1-expressing cells
T1 construct: expressed in transfected cells
T1 sequence (P30872 whole entry): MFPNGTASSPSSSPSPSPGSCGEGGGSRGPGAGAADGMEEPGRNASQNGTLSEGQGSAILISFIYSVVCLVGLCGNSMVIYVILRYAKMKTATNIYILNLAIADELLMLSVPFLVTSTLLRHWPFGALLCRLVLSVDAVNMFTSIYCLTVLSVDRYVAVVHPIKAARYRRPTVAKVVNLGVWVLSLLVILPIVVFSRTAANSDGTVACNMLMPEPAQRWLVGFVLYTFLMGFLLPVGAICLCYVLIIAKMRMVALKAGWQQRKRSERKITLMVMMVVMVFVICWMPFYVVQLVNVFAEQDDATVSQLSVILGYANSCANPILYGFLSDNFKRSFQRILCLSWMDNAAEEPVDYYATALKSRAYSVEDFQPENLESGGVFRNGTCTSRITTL
Description: (§3) The binding affinity of Cu-NODAGA-LM3 was determined by measuring the IC50 by labelling the precursor with natural copper (^natCu). The IC50 value is the concentration in which 50% of the specific binding of a reference radioligand to the tested molecule is inhibited. The universal somatostatin radioligand [Leu,D-Trp,^125I-Tyr]-somatostatin-28 was used as a reference radioligand. The assay was performed on […] cryostat sections of membrane pellets prepared from SSTR1-, SSTR2-, SSTR3-, SSTR4-, and SSTR5-expressing cells incubated with increasing concentrations of ^natCu-NODAGA-LM3. IC50 values for each SSTR subtype were calculated by mathematically extracting the concentration of the tested molecule, causing 50% displacing of the specific bounded [Leu,D-Trp,^125I-Tyr]-somatostatin-28.

[7] = molecular target: T2, SSTR2 (Homo sapiens, UniProt P30874); assay: as above; conditions: membrane pellet sections of SSTR2-expressing cells
T2 construct: expressed in transfected cells
T2 sequence (P30874 whole entry): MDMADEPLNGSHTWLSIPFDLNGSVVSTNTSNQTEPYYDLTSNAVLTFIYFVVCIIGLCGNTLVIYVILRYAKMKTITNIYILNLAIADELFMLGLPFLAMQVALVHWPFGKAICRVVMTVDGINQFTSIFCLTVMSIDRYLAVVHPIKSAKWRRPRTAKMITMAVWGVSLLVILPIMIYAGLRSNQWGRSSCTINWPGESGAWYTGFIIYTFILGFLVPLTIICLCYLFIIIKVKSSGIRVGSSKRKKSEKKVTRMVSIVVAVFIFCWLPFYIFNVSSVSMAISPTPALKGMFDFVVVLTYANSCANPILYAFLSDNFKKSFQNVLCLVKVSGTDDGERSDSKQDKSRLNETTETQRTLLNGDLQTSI
Description: as §3

[8] = molecular target: T3, SSTR3 (Homo sapiens, UniProt P32745); assay: as above; conditions: membrane pellet sections of SSTR3-expressing cells
T3 construct: expressed in transfected cells
T3 sequence (P32745 whole entry): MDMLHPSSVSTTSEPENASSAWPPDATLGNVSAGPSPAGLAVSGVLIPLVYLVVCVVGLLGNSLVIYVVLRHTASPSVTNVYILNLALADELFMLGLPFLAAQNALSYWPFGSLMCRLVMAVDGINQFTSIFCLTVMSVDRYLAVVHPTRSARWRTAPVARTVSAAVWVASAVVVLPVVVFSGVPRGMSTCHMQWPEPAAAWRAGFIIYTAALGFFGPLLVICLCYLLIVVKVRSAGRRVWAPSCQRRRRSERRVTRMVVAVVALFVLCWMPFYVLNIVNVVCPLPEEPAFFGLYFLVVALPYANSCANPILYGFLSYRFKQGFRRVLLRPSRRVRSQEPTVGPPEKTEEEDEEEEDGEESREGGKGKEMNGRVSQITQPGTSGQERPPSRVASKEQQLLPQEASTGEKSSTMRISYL
Description: as §3

[9] = molecular target: T4, SSTR4 (Homo sapiens, UniProt P31391); assay: as above; conditions: membrane pellet sections of SSTR4-expressing cells
T4 construct: expressed in transfected cells
T4 sequence (P31391 whole entry): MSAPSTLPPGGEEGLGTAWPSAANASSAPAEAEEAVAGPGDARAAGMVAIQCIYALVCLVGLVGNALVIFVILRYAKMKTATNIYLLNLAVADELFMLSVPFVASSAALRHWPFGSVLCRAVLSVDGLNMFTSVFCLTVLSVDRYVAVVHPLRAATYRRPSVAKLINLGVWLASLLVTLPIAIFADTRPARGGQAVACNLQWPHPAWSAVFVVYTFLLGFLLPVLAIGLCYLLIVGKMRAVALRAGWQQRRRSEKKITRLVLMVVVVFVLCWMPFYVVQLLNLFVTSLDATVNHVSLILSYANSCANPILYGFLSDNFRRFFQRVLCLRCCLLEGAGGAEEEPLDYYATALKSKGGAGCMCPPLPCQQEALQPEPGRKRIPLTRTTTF
Description: as §3

[10] = molecular target: T5, SSTR5 (Homo sapiens, UniProt P35346); assay: as above; conditions: membrane pellet sections of SSTR5-expressing cells
T5 construct: expressed in transfected cells
T5 sequence (P35346 whole entry): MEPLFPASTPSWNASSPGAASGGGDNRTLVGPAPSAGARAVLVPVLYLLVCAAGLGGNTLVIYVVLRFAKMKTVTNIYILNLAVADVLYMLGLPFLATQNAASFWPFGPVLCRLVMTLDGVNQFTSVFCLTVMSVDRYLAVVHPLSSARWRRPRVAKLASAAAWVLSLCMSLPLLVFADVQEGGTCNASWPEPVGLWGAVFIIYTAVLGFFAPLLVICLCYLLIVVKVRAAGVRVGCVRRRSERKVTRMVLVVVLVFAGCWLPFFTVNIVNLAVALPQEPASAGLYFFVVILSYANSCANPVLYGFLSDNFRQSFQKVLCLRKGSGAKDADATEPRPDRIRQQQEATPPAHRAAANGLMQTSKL
Description: as §3

`C[C@@H](O)[C@@H]1NC(=O)[C@H](CCCCN)NC(=O)[C@@H](Cc2ccc(NC(N)=O)cc2)NC(=O)[C@H](Cc2ccc(O)cc2)NC(=O)[C@H](NC(=O)[C@H](Cc2ccc(Cl)cc2)NC(=O)CC[C@H](C(=O)O)N2CCN(CC(=O)O)CCN(CC(=O)O)CC2)CSSC[C@@H](C(=O)N[C@H](Cc2ccc(O)cc2)C(N)=O)NC1=O` [[^64Cu]Cu-NODAGA-LM3, metal not drawn] (X2-[Phe(4-Cl)][dC]Y[dPhe(4-NHCONH2)]KTC[dY]-NH2; disulfide 2-7) gave a tissue uptake at 4 h ([1]; bone, 0.15 MBq, Uptake Bone, 4 hours post-injection, non-blocking) of 0.39 ± 0.07 %ID/g, a tissue uptake at 4 h ([1]; bone, with DOTA-LM3, 2000-fold excess, co-injected as blocking agent, Uptake Bone, 4 hours blocking, co-injected 2000-fold excess of DOTA-LM3) of 0.01 ± 0.01 %ID/g and a tissue uptake at 4 h ([1]; pancreas, 0.15 MBq, Uptake Pancreas, 4 hours post-injection, non-blocking) of 0.55 ± 0.1 %ID/g. The tissue uptake at 4 h ([1]; pancreas, with DOTA-LM3, 2000-fold excess, co-injected as blocking agent, Uptake Pancreas, 4 hours blocking, co-injected 2000-fold excess of DOTA-LM3) was 0.12 ± 0.03 %ID/g, the tissue uptake at 4 h ([1]; stomach, 0.15 MBq, Uptake Stomach, 4 hours post-injection, non-blocking) was 1.31 ± 0.55 %ID/g and the tissue uptake at 4 h ([1]; stomach, with DOTA-LM3, 2000-fold excess, co-injected as blocking agent, Uptake Stomach, 4 hours blocking, co-injected 2000-fold excess of DOTA-LM3) was 0.43 ± 0.14 %ID/g. For the same compound, the tissue uptake at 4 h ([1]; tumor, 0.15 MBq, Uptake Tumor, 4 hours post-injection, non-blocking) was 37.9 ± 3.43 %ID/g, the tissue uptake at 4 h ([1]; tumor, with DOTA-LM3, 2000-fold excess, co-injected as blocking agent, Uptake Tumor, 4 hours blocking, co-injected 2000-fold excess of DOTA-LM3) was 0.52 ± 0.18 %ID/g and the in vivo stability [2] was “generally stable in vivo, with limited transchelation phenomena”.
In the case of `C[C@@H](O)[C@@H]1NC(=O)[C@H](CCCCN)NC(=O)[C@@H](Cc2ccc(NC(N)=O)cc2)NC(=O)[C@H](Cc2ccc(O)cc2)NC(=O)[C@H](NC(=O)[C@H](Cc2ccc(Cl)cc2)NC(=O)CC[C@H](C(=O)O)N2CCN(CC(=O)O)CCN(CC(=O)O)CC2)CSSC[C@@H](C(=O)N[C@H](Cc2ccc(O)cc2)C(N)=O)NC1=O` [NODAGA-LM3, 2,2′-(7-((R)-4-(((S)-1-(((4R,7S,10S,13R,16S,19S)-4-(((R)-1-amino-3-(4-hydroxyphenyl)-1-oxopropan-2yl)carbamoyl)-10-(4-aminobutyl)-16-(4-hydroxybenzyl)-7-((R)-1-hydroxyethyl)-6,9,12,15,18-pentaoxo-13-(4-ureidobenzyl)-1,2-dithia-5,8,11,14,17-pentaazacycloicosan-19-yl)amino)-3-(4-chlorophenyl)-1-oxopropan-2-yl)amino)-1-carboxy-4-oxobutyl)-1,4,7-triazonane-1,4-diyl)diacetic acid] (X2-[Phe(4-Cl)][dC]Y[dPhe(4-NHCONH2)]KTC[dY]-NH2; disulfide 2-7), the NOAEL at 14 days [3] is reported as 5 mg/kg, the delayed toxicity ([4]; 5 mg/kg i.v., 14 days observation) is reported as “no indication of delayed toxicity” and the “adverse systemic or local effects” value ([4]; 5 mg/kg i.v., mice) is reported as “did not cause any adverse systemic or local effects”. The “body weight gain or food consumption” value ([4]; 5 mg/kg i.v., mice) was “No effects”, the clinical tolerability ([4]; 5 mg/kg i.v., mice) was “clinically well-tolerated” and the mortality ([4]; 5 mg/kg i.v., mice) was “no treatment-related mortality”. For the same compound, the “macroscopic or microscopic findings” value ([4]; 5 mg/kg i.v., necropsy and histopathology) was “No macroscopic or microscopic findings that could be attributed to treatment”, the “hematology, white cell count” value ([4]; 5 mg/kg i.v., transitory, considered non-adverse) was “increased white cell count in male mice” and the “safety ratio vs intended maximum patient dose 0.8 μg/kg” value ([4]; considering the dose conversion factor) was “higher than 1,000 times”.
In the case of `[Cl][61Cu][Cl]` [[^61Cu]CuCl2], the “excretion route of free isotopes” value [5] is reported as “excreted mainly through the liver”.
For `C[C@@H](O)[C@@H]1NC(=O)[C@H](CCCCN)NC(=O)[C@@H](Cc2ccc(NC(N)=O)cc2)NC(=O)[C@H](Cc2ccc(O)cc2)NC(=O)[C@H](NC(=O)[C@H](Cc2ccc(Cl)cc2)NC(=O)CC[C@H](C(=O)O)N2CCN(CC(=O)O)CCN(CC(=O)O)CC2)CSSC[C@@H](C(=O)N[C@H](Cc2ccc(O)cc2)C(N)=O)NC1=O` [^natCu-NODAGA-LM3, metal not drawn] (X2-[Phe(4-Cl)][dC]Y[dPhe(4-NHCONH2)]KTC[dY]-NH2; disulfide 2-7), the IC50 [6] was at least 1000 nM, the IC50 [7] was 6.7 ± 1.5 nM and the IC50 [8] was at least 1000 nM. It also gave an IC50 [9] of at least 1000 nM and an IC50 [10] of at least 1000 nM.
